Earlier results, collected in patent US4310517A, “Tumor-resolving and histolytic medicaments and their use” (Troponwerke GmbH & Co., KG, priority 1976, dated 1982).
Like-named read-outs stand apart in the source and are kept apart here.

System: tumour cells

In the case of `O=P1(N(CCCl)CCCl)NCCCO1` (centres unmarked) [cyclophosphamide], the tumour cells destroyed (LD10 dosage) is given as 99.999% and the tumour cells destroyed (one eighth of the LD10 dose) is given as 90%.
